According to ChEMBL document CHEMBL1201862, “PubChem BioAssay data set” (2004):
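Dose response: 5 concentrations. Exposure: 48 h. Format: 96-well plates. Endpoint: linear interpolation; highest concentration if not reached. GI50 = concentration required for 50% inhibition of growth.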 Activity calls are given as the source filed them. Cut-off read from the data, not from the text of the source: active = GI50 up to about 1.1 µM and inactive = higher.

Columns and labels:
Experiment in all cases: NCI tumour cell line growth inhibition, 48 h
BT-549 = test system: BT-549
COLO 205 = test system: COLO 205
DU-145 = test system: DU-145
HCT-116 = test system: HCT-116
Hs-578T = test system: Hs-578T
K562 = test system: K562
KM12 = test system: KM12
M14 = test system: M14
MOLT-4 = test system: MOLT-4
OVCAR-5 = test system: OVCAR-5
OVCAR-8 = test system: OVCAR-8
PC-3 = test system: PC-3
SF-539 = test system: SF-539
SK-MEL-28 = test system: SK-MEL-28
SK-MEL-2 = test system: SK-MEL-2
SN12C = test system: SN12C
SNB-75 = test system: SNB-75
SW-620 = test system: SW-620
TK-10 = test system: TK-10
RXF 393 = test system: RXF 393

Structure (SMILES) | GI50 (BT-549) | GI50 (COLO 205) | GI50 (DU-145) | GI50 (HCT-116) | GI50 (Hs-578T) | GI50 (K562) | GI50 (KM12) | GI50 (M14) | GI50 (MOLT-4) | GI50 (OVCAR-5) | GI50 (OVCAR-8) | GI50 (PC-3) | GI50 (SF-539) | GI50 (SK-MEL-28) | GI50 (SK-MEL-2) | GI50 (SN12C) | GI50 (SNB-75) | GI50 (SW-620) | GI50 (TK-10) | GI50 (RXF 393)
COc1ccccc1C1SCC(=O)N1c1ccc(-c2ccc(-n3c(-c4ccccc4)nc4ccccc4c3=O)cc2)cc1 (stereo not drawn) | > 100 µM (inactive) | > 100 µM (inactive) | > 100 µM (inactive) | > 100 µM (inactive) | > 100 µM (inactive) | > 100 µM (inactive) | > 100 µM (inactive) | > 100 µM (inactive) | > 100 µM (inactive) | > 100 µM (inactive) | > 100 µM (inactive) | > 100 µM (inactive) | 31 µM (inactive) | > 100 µM (inactive) | > 100 µM (inactive) | > 100 µM (inactive) | > 100 µM (inactive) | > 100 µM (inactive) | > 100 µM (inactive) | 
O=CN1CCN(CC(O)CN2CCCCC2)CC1 (stereo not drawn) | > 100 µM (inactive) | > 100 µM (inactive) | > 100 µM (inactive) | > 100 µM (inactive) | > 100 µM (inactive) | > 100 µM (inactive) | > 100 µM (inactive) | > 100 µM (inactive) | > 100 µM (inactive) | > 100 µM (inactive) | > 100 µM (inactive) | > 100 µM (inactive) |  | > 100 µM (inactive) | > 100 µM (inactive) | > 100 µM (inactive) | > 100 µM (inactive) | > 100 µM (inactive) | > 100 µM (inactive) | > 100 µM (inactive)
COC1CC(C)(NC(C)=O)C2OC(c3ccccc3)OCC2O1 (stereo not drawn) | > 100 µM (inactive) | > 100 µM (inactive) | > 100 µM (inactive) | > 100 µM (inactive) | > 100 µM (inactive) | > 100 µM (inactive) | > 100 µM (inactive) | > 100 µM (inactive) | > 100 µM (inactive) | > 100 µM (inactive) | > 100 µM (inactive) | > 100 µM (inactive) | > 100 µM (inactive) | > 100 µM (inactive) |  | > 100 µM (inactive) | > 100 µM (inactive) | > 100 µM (inactive) | > 100 µM (inactive) | > 100 µM (inactive)
O=[N+]([O-])c1ccc2c(c1)c(OCc1ccccc1)nn2Cc1ccccc1 | 71.8 µM (inactive) |  | > 100 µM (inactive) |  | 52.8 µM (inactive) | > 100 µM (inactive) | > 100 µM (inactive) | > 100 µM (inactive) | 57 µM (inactive) | > 100 µM (inactive) | > 100 µM (inactive) | 63.1 µM (inactive) | 34.5 µM (inactive) | 72.6 µM (inactive) | > 100 µM (inactive) | > 100 µM (inactive) |  | > 100 µM (inactive) | 62.1 µM (inactive) | 34.2 µM (inactive)
CC1(C)CNC(c2ccc3c(c2)Cc2cc(C4=NC(C)(C)CN4)ccc2-3)=N1 | > 100 µM (inactive) | 28.2 µM (inactive) | > 100 µM (inactive) | 32.8 µM (inactive) | 64.7 µM (inactive) | 24.4 µM (inactive) | 28.1 µM (inactive) | 45.1 µM (inactive) | 31.9 µM (inactive) | > 100 µM (inactive) | 37 µM (inactive) | 39.8 µM (inactive) |  | 38.7 µM (inactive) | 20.1 µM (inactive) | 36.6 µM (inactive) | 90.6 µM (inactive) | 34.5 µM (inactive) | > 100 µM (inactive) | > 100 µM (inactive)
COc1ccc(/N=N/C(=N/NC(=O)c2ccc(C)cc2)c2ccc(N(CCC#N)CCC#N)cc2OC)cc1 | > 100 µM (inactive) | > 100 µM (inactive) | > 100 µM (inactive) | > 100 µM (inactive) | > 100 µM (inactive) | > 100 µM (inactive) | > 100 µM (inactive) | > 100 µM (inactive) | > 100 µM (inactive) | > 100 µM (inactive) | > 100 µM (inactive) | > 100 µM (inactive) |  | > 100 µM (inactive) | > 100 µM (inactive) | > 100 µM (inactive) |  | > 100 µM (inactive) | > 100 µM (inactive) | > 100 µM (inactive)
CCNC1=C(NC(=O)CC)C(=O)c2ccccc2C1=O | > 100 µM (inactive) | 46.5 µM (inactive) | > 100 µM (inactive) | 36.7 µM (inactive) | > 100 µM (inactive) | > 100 µM (inactive) | > 100 µM (inactive) | 31.7 µM (inactive) | > 100 µM (inactive) | > 100 µM (inactive) | 79.1 µM (inactive) | 42.6 µM (inactive) | > 100 µM (inactive) | > 100 µM (inactive) |  | 73.3 µM (inactive) | > 100 µM (inactive) | 60.4 µM (inactive) | > 100 µM (inactive) | 48.1 µM (inactive)
CCOC(=O)CNC1=Nc2ccccc2C(=O)N2CSCC12 (stereo not drawn) | > 100 µM (inactive) | > 100 µM (inactive) | > 100 µM (inactive) | > 100 µM (inactive) | > 100 µM (inactive) | > 100 µM (inactive) | > 100 µM (inactive) | > 100 µM (inactive) | > 100 µM (inactive) | > 100 µM (inactive) | > 100 µM (inactive) | > 100 µM (inactive) |  | > 100 µM (inactive) | > 100 µM (inactive) | > 100 µM (inactive) | > 100 µM (inactive) | > 100 µM (inactive) | > 100 µM (inactive) | > 100 µM (inactive)
CC1(C)COP(=S)(c2ccccn2)O[C@@H]1c1ccccc1 (stereo partly drawn) | > 100 µM (inactive) | 38.3 µM (inactive) | > 100 µM (inactive) | 42.8 µM (inactive) | > 100 µM (inactive) | 41.6 µM (inactive) | > 100 µM (inactive) | > 100 µM (inactive) | 30.1 µM (inactive) | > 100 µM (inactive) | > 100 µM (inactive) | 88.7 µM (inactive) |  | > 100 µM (inactive) |  | > 100 µM (inactive) | 6.19 µM (inactive) | > 100 µM (inactive) | > 100 µM (inactive) | 62.2 µM (inactive)
Cc1ccccc1N/N=C1\C(=O)Nc2ccccc21 | > 100 µM (inactive) | 95.1 µM (inactive) | > 100 µM (inactive) | > 100 µM (inactive) | > 100 µM (inactive) | > 100 µM (inactive) | > 100 µM (inactive) | > 100 µM (inactive) | > 100 µM (inactive) | > 100 µM (inactive) | > 100 µM (inactive) | > 100 µM (inactive) |  | > 100 µM (inactive) | > 100 µM (inactive) | 88.9 µM (inactive) | > 100 µM (inactive) | > 100 µM (inactive) | > 100 µM (inactive) | > 100 µM (inactive)
Clc1ccc(Cc2nc3ccccc3nc2-c2cccc(Cl)c2)cc1 | 4.49 µM (inactive) | 2.8 µM (inactive) | 14.2 µM (inactive) | 1.72 µM (inactive) | 3.47 µM (inactive) | 1.94 µM (inactive) | 3.48 µM (inactive) | 2.43 µM (inactive) | 2.06 µM (inactive) | 7.38 µM (inactive) | 3.56 µM (inactive) | 2.26 µM (inactive) | 2.25 µM (inactive) |  | 3.24 µM (inactive) | 2.94 µM (inactive) |  | 1.61 µM (inactive) | 12.3 µM (inactive) | 2.04 µM (inactive)
O=[N+]([O-])c1cc(/N=N/c2c(O)ccc3cc(S(=O)(=O)O)ccc23)c(O)c([N+](=O)[O-])c1 | > 100 µM (inactive) | > 100 µM (inactive) | > 100 µM (inactive) | > 100 µM (inactive) | > 100 µM (inactive) | > 100 µM (inactive) | 31.9 µM (inactive) | > 100 µM (inactive) | 31.5 µM (inactive) | > 100 µM (inactive) | 35.7 µM (inactive) | 90.6 µM (inactive) |  | > 100 µM (inactive) | > 100 µM (inactive) | > 100 µM (inactive) | > 100 µM (inactive) | 93.1 µM (inactive) | > 100 µM (inactive) | > 100 µM (inactive)
O/N=N\c1nc(-c2ccccn2)nc2ccccc12 | 20.8 µM (inactive) | 6.15 µM (inactive) | 15 µM (inactive) | 3.33 µM (inactive) | > 100 µM (inactive) | 2.23 µM (inactive) | 20.6 µM (inactive) | 4.09 µM (inactive) | 0.373 µM (active) | 27.1 µM (inactive) | 12.4 µM (inactive) | 11.7 µM (inactive) | 17.1 µM (inactive) | 16 µM (inactive) | 4.68 µM (inactive) | 23 µM (inactive) | 20.3 µM (inactive) | 5.35 µM (inactive) | 17.4 µM (inactive) | 
CCCCC/C=C1/CC(CO)(COC(=O)CC(C(C)C)C(C)C)OC1=O (stereo not drawn) | 14.8 µM (inactive) | 3.24 µM (inactive) | 13.4 µM (inactive) | 14.8 µM (inactive) | 2.28 µM (inactive) | 5.75 µM (inactive) | 16.9 µM (inactive) | 14.1 µM (inactive) | 5.42 µM (inactive) | 15.4 µM (inactive) | 17.2 µM (inactive) | 10.1 µM (inactive) |  | 13 µM (inactive) | 13.3 µM (inactive) | 12.4 µM (inactive) | 10.3 µM (inactive) | 18.3 µM (inactive) | 11.8 µM (inactive) | 16.3 µM (inactive)
COc1c(O)cc(C(=O)O[C@@H]2Cc3c(O)cc(O)cc3O[C@@H]2c2cc(O)c(O)c(O)c2)cc1O | 25.3 µM (inactive) |  | 20.3 µM (inactive) | 17.9 µM (inactive) | > 100 µM (inactive) | 22.8 µM (inactive) | 20.1 µM (inactive) | 59.4 µM (inactive) | 24.2 µM (inactive) | 39.4 µM (inactive) | 23.3 µM (inactive) | 68.1 µM (inactive) |  | > 100 µM (inactive) | 63.2 µM (inactive) | 19.7 µM (inactive) |  | 28.2 µM (inactive) | > 100 µM (inactive) | 18.4 µM (inactive)
